Columns and labels:
Test in all cases: Kinase profiling in a biochemical assay panel (mobility shift assays and ELISA), %-inhibition at 1 μM; selectivity entropy
[1] = target: panel of more than 300 wild-type and mutant kinases (313 kinase panel) (Homo sapiens, UniProt P29376); settings: kinase LTK; compound at 1 μM
[2] = target: T1, panel of more than 300 wild-type and mutant kinases (313 kinase panel) (Homo sapiens, UniProt O15530); settings: kinase PDK1; 1 μM
T1 sequence (O15530 1-556): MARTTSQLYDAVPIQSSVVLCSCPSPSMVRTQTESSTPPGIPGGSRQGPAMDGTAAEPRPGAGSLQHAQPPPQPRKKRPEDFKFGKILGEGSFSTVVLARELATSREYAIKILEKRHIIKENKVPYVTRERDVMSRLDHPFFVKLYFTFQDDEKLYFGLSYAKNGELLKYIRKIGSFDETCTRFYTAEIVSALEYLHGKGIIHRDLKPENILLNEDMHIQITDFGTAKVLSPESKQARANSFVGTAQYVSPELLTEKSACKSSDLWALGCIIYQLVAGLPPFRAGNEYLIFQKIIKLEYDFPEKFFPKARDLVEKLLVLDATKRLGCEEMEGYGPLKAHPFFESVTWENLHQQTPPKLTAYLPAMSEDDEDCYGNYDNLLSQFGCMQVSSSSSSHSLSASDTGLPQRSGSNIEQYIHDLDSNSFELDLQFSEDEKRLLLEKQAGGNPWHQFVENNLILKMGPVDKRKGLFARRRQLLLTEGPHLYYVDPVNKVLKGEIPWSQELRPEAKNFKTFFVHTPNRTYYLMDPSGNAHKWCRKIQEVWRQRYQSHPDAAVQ

[3] = target: T2, panel of more than 300 wild-type and mutant kinases (313 kinase panel) (Homo sapiens, UniProt P42680); settings: kinase TEC; 1 μM
T2 sequence (P42680 1-631): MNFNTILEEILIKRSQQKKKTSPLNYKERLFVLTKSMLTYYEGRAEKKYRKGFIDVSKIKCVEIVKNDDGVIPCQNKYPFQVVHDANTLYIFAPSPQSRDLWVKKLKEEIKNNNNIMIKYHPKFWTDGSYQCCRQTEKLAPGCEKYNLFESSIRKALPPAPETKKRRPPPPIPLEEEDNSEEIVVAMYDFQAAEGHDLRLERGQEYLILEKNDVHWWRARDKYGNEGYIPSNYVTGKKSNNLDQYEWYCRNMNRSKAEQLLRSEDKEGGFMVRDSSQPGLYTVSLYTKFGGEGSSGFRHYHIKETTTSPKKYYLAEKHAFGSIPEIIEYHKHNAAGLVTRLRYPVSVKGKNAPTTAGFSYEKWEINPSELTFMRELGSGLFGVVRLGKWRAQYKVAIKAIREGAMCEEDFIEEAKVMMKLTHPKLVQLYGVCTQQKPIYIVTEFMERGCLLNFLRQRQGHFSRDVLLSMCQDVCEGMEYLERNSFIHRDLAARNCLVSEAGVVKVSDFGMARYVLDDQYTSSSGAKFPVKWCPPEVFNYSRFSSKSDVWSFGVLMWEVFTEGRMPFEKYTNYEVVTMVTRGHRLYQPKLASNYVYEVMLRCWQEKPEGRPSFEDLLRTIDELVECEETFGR

[4] = target: T3, panel of more than 300 wild-type and mutant kinases (313 kinase panel) (Homo sapiens, UniProt Q8TDC3); settings: kinase BRSK1; 1 μM compound
T3 sequence (Q8TDC3 1-778): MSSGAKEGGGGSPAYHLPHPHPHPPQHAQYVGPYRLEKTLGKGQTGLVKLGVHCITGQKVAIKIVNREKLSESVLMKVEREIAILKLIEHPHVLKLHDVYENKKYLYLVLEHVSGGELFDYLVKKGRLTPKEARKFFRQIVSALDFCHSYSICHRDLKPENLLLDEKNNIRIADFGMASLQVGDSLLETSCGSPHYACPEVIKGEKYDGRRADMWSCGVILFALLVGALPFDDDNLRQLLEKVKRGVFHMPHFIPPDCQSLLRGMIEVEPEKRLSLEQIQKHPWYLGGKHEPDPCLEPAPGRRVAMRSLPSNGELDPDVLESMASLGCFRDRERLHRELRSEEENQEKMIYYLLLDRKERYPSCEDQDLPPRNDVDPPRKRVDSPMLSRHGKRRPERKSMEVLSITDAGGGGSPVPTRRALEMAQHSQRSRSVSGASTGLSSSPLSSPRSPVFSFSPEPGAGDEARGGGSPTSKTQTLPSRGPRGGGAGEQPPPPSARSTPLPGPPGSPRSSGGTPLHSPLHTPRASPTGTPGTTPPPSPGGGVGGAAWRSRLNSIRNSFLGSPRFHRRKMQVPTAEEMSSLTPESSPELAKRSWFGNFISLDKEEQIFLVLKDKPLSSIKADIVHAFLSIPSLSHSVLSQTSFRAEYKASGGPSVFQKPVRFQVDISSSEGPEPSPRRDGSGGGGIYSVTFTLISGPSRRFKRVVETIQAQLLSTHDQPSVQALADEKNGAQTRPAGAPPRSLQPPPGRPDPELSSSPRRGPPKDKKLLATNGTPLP

[5] = target: T4, panel of more than 300 wild-type and mutant kinases (313 kinase panel) (Homo sapiens, UniProt P41743); settings: kinase PKCι; 1 μM
T4 sequence (P41743 1-596): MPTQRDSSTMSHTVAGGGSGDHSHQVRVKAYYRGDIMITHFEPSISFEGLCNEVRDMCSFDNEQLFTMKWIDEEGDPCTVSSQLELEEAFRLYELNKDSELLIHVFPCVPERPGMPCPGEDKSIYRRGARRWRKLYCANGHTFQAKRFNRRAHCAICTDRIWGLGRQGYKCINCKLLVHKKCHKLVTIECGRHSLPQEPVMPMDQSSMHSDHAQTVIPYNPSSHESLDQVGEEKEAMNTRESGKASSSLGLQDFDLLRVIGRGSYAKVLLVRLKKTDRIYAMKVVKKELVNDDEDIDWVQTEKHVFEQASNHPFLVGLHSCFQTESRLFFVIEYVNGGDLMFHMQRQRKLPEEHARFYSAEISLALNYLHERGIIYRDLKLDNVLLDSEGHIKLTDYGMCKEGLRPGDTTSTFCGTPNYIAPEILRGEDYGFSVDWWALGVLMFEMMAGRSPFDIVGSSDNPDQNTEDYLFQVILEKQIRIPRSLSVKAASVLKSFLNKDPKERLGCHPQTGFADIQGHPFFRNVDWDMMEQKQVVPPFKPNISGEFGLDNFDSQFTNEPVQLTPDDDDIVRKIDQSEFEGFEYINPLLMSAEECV

| Compound | %-inhibition of LTK [1] | %-inhibition of PDK1 [2] | %-inhibition of TEC [3] | %-inhibition, BRSK1 [4] | %-inhibition of PKCι [5] |
| --- | --- | --- | --- | --- | --- |
| Cc1ccc(Nc2nccc(N(C)c3ccc4c(C)n(C)nc4c3)n2)cc1S(N)(=O)=O [pazopanib] | 27% | -0.284% | 48% | -1.05% | 0.255% |
| Cc1ccc(C(=O)Nc2ccc(CN3CCN(C)CC3)c(C(F)(F)F)c2)cc1C#Cc1cnc2cccnn12 [ponatinib] | 85% | -5% | 79% | -8% | 18% |
| CNC(=O)c1cc(Oc2ccc(NC(=O)Nc3ccc(Cl)c(C(F)(F)F)c3)c(F)c2)ccn1 [regorafenib] | -1.56% | -3% | -8% | -17% | -8% |
| N#CC[C@H](C1CCCC1)n1cc(-c2ncnc3[nH]ccc23)cn1 [ruxolitinib] | 97% | -3.16% | 18% | -6.38% | 1.52% |
| CCN(CC)CCNC(=O)c1c(C)[nH]c(/C=C2\C(=O)Nc3ccc(F)cc32)c1C [sunitinib] | 81% | – | – | – | – |
| CO[C@H]1C[C@@H]2CC[C@@H](C)[C@@](O)(O2)C(=O)C(=O)N2CCCC[C@H]2C(=O)O[C@H]([C@H](C)C[C@@H]2CC[C@@H](OC(=O)C(C)(CO)CO)[C@H](OC)C2)CC(=O)[C@H](C)/C=C(\C)[C@@H](O)[C@@H](OC)C(=O)[C@H](C)C[C@H](C)/C=C/C=C/C=C/1C [temsirolimus] | -10% | -8% | -9% | -14% | 13% |
| CC(=O)Nc1cccc(-n2c(=O)n(C3CC3)c(=O)c3c(Nc4ccc(I)cc4F)n(C)c(=O)c(C)c32)c1 [trametinib] | -7% | -5.52% | -7.53% | -6% | 9% |
| COc1cc2c(Nc3ccc(Br)cc3F)ncnc2cc1OCC1CCN(C)CC1 [vandetanib] | – | -4.37% | 15% | -9% | 6% |
| CCCS(=O)(=O)Nc1ccc(F)c(C(=O)c2c[nH]c3ncc(-c4ccc(Cl)cc4)cc23)c1F [vemurafenib] | 2.6% | -4% | -0.191% | -8% | -16% |

Reference: paper PMC3961306, “Comparison of the Cancer Gene Targeting and Biochemical Selectivities of All Targeted Kinase Inhibitors Approved for Clinical Use” (PLoS ONE, 2014)
